Patent US11566007B2, “Ras inhibitors” (Revolution Medicines, Inc., priority 2019, dated 2023)
pEC50, pIC50: −log10 of the molar value. Where “and” joins values, the source holds several entries; their conditions need not be identical. Equal entries are not always repeated.

Legend:
[1] = biological target: K-Ras G12C (Homo sapiens (Human), UniProt P01116+P62937, G12C); assay: Ras-Raf (BRAF RBD) disruption / FRET / MOA assay, KRAS G12C; type: biochemical; settings: KRAS G12C; Ras-Raf disruption/FRET/MOA assay; read-out: IC50* KRAS G12C FRET data
K-Ras G12C, sequence (P01116-2 other isoform, or with tags, fused parts or gaps G12C): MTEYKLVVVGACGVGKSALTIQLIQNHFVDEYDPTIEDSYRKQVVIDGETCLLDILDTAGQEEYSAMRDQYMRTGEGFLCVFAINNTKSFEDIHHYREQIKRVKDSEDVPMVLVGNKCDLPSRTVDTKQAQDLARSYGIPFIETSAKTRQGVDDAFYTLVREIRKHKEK
K-Ras G12C, sequence (P62937 whole entry): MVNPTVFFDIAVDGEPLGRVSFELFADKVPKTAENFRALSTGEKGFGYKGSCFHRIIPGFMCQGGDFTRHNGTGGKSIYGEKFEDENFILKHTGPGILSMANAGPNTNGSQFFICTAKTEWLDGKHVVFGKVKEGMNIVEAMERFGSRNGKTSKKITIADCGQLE
Summary of the method: (§1)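 A 10-point, 3-fold dilution series topping at 30 μM final was incubated 3 h at 25° C with the Ras/cyclophilin A/BRAF RBD mixture.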

[2] = biological target: NRAS WT (Homo sapiens (Human), UniProt P01111+P62937); assay: Ras-Raf (BRAF RBD) disruption / FRET / MOA assay, NRAS WT; type: biochemical; settings: read-out: IC50* NRAS WT FRET data
NRAS WT, sequence (P01111 whole entry): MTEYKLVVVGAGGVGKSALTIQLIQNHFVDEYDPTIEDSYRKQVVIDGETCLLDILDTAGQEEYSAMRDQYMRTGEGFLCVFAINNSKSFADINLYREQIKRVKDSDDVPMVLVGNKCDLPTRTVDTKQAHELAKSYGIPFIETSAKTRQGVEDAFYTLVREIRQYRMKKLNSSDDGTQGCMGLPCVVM
NRAS WT, sequence (P62937 whole entry): as the sequence (P62937 whole entry) above
Summary of the method: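 Compounds (30 μM top final, 10-point 3-fold dilutions) incubated 3 h at 25° C with nucleotide-loaded Ras, cyclophilin A and BRAF RBD. Detection with 10 nM anti-His Eu-W1024 and 50 nM anti-GST allophycocyanin over another 1.5 h. Lowered TR-FRET ratio relative to DMSO wells gives IC50.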

[3] = test system: NCI-H358 cells (K-Ras G12C); assay: Potency assay: pERK in NCI-H358 cells; type: cell-based, human; settings: Homo sapiens, NCI-H358; H358 KRAS G12C; read-out: pERK EC50
Summary of the method: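 pERK decrease read by AlphaLISA SureFire p-ERK1/2 or In-Cell Western after 4 h compound exposure at 37 °C, 5% CO2.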

[4] = biological target: NRAS G12C (Homo sapiens (Human), UniProt P01111+P62937, G12C); assay: Ras-Raf (BRAF RBD) disruption / FRET / MOA assay, NRAS G12C; type: biochemical; settings: read-out: IC50* NRAS G12C FRET data
NRAS G12C, sequence (P01111 whole entry G12C): as the sequence (P01111 whole entry) above, with G12C counted along it
NRAS G12C, sequence (P62937 whole entry): as the sequence (P62937 whole entry) above
Summary of the method: as §1

[5] = biological target: KRAS G13D (Homo sapiens (Human), UniProt P01116+P62937, G13D); assay: Ras-Raf (BRAF RBD) disruption / FRET / MOA assay, KRAS G13D; type: biochemical; settings: read-out: IC50* KRAS G13D FRET data
KRAS G13D, sequence (P01116-2 other isoform, or with tags, fused parts or gaps G13D): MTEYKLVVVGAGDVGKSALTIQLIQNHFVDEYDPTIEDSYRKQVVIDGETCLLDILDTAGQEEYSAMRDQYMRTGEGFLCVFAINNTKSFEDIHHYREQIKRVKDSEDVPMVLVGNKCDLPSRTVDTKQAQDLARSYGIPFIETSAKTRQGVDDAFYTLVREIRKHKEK
KRAS G13D, sequence (P62937 whole entry): as the sequence (P62937 whole entry) above
Summary of the method: as §1

[6] = biological target: KRAS G12V (Homo sapiens (Human), UniProt P01116+P62937, G12V); assay: Ras-Raf (BRAF RBD) disruption / FRET / MOA assay, KRAS G12V; type: biochemical; settings: read-out: IC50* KRAS G12V FRET data
KRAS G12V, sequence (P01116-2 other isoform, or with tags, fused parts or gaps G12V): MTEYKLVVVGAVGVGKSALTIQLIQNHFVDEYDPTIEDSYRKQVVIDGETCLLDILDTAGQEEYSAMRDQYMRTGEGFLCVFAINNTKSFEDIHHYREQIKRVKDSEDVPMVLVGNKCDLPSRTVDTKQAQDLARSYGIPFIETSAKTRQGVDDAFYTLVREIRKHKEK
KRAS G12V, sequence (P62937 whole entry): as the sequence (P62937 whole entry) above
Summary of the method: as §1

[7] = biological target: KRAS G12D (Homo sapiens (Human), UniProt P01116+P62937, G12D); assay: Ras-Raf (BRAF RBD) disruption / FRET / MOA assay, KRAS G12D; type: biochemical; settings: Ras-Raf disruption/FRET/MOA assay; class symbols; read-out: KRAS G12D FRET data IC50
KRAS G12D, sequence (P01116-2 other isoform, or with tags, fused parts or gaps G12D): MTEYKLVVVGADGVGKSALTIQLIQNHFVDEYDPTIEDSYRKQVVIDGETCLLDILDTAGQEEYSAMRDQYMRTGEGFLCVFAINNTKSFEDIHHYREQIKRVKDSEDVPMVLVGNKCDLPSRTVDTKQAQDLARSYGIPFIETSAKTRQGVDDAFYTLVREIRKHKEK
KRAS G12D, sequence (P62937 whole entry): as the sequence (P62937 whole entry) above
Summary of the method: as §1

C=CC(=O)N1CC[C@H](C(=O)N(C)[C@H](C(=O)N[C@H]2Cc3cc(O)cc(c3)-c3ccc4c(c3)c(c(-c3cc(C)ccc3[C@H](C)OC)n4CC)CC(C)(C)COC(=O)[C@@H]3CCCN(N3)C2=O)C(C)C)C1 (atropisomer, axis not shown) [Example A167]
pIC50 [1]: 6.00 to 7.00 and > 8.00 | pIC50 [2]: 7.00 to 8.00 | pEC50 [3]: > 5.30 | pIC50 [4]: 6.00 to 7.00 and > 8.00 | pIC50 [5]: 6.00 to 7.00 and < 5.00 | pIC50 [6]: 5.00 to 6.00 and 7.00 to 8.00 | pIC50 [7]: < 5.00 and 6.00 to 7.00

CC#CC(=O)N1CCC(C(=O)N(C)[C@H](C(=O)N[C@H]2Cc3nc(cs3)-c3ccc4c(c3)c(c(-c3cccnc3[C@H](C)OC)n4CC)CC(C)(C)COC(=O)[C@@H]3CCCN(N3)C2=O)C(C)C)C1 (atropisomer, axis not shown) [Example A168]
pIC50 [1]: 6.00 to 7.00 | pIC50 [2]: 5.00 to 6.00 | pEC50 [3]: > 5.30 | pIC50 [4]: 5.00 to 6.00 | pIC50 [5]: < 5.00 | pIC50 [6]: 5.00 to 6.00 | pIC50 [7]: < 5.00

C=CC(=O)N1CC[C@H](C(=O)N(C)[C@H](C(=O)N[C@H]2Cc3cccc(c3)-c3ccc4c(c3)c(c(-c3cccnc3[C@H](C)OC)n4CC(F)F)CC(C)(C)COC(=O)[C@@H]3CCCN(N3)C2=O)C(C)C)C1 (atropisomer, axis not shown) [Example A335]
pIC50 [1]: 6.00 to 7.00 | pIC50 [2]: 5.00 to 6.00 | pEC50 [3]: > 5.30 | pIC50 [4]: 6.00 to 7.00 | pIC50 [5]: 5.00 to 6.00 | pIC50 [6]: 5.00 to 6.00 | pIC50 [7]: < 5.00

C=CC(=O)N1CC[C@H](C(=O)N(C)[C@H](C(=O)N[C@H]2Cc3cc(cc(C(F)F)c3)-c3ccc4c(c3)c(c(-c3cccnc3[C@H](C)OC)n4CC)CC(C)(C)COC(=O)[C@@H]3CCCN(N3)C2=O)C(C)C)C1 (atropisomer, axis not shown) [Example A341, (3S)-1-acryloyl-N-((2S)-1-(((6^3S,4S)-2^5-(difluoromethyl)-1^1-ethyl-1^2-(2-((S)-1-methoxyethyl)pyridin-3-yl)-10,10-dimethyl-5,7-dioxo-6^1,6^2,6^3,6^4,6^5,6^6-hexahydro-1^1H-8-oxa-1(5,3)-indola-6(1,3)-pyridazina-2(1,3)-benzenacycloundecaphane-4-yl)amino)-3-methyl-1-oxobutan-2-yl)-N-methylpyrrolidine-3-carboxamide]
pIC50 [1]: 6.00 to 7.00 | pIC50 [2]: 5.00 to 6.00 | pEC50 [3]: > 5.30 | pIC50 [4]: 6.00 to 7.00 | pIC50 [5]: 5.00 to 6.00 | pIC50 [6]: 5.00 to 6.00 | pIC50 [7]: 5.00 to 6.00

C=CC(=O)N1CC(OC[C@H](C(=O)N[C@H]2Cc3cccc(c3)-c3ccc4c(c3)c(c(-c3cccnc3[C@H](C)OC)n4CC(F)(F)F)CC(C)(C)COC(=O)[C@@H]3CCCN(N3)C2=O)C(C)C)C1 (atropisomer, axis not shown) [Example A344]
pIC50 [1]: 7.00 to 8.00 | pIC50 [2]: 5.00 to 6.00 | pEC50 [3]: > 5.30 | pIC50 [4]: 7.00 to 8.00 | pIC50 [5]: 5.00 to 6.00 | pIC50 [6]: 5.00 to 6.00 | pIC50 [7]: < 5.00

C=CC(=O)N1CC(OC[C@H](C(=O)N[C@H]2Cc3cc(cc(C(F)F)c3)-c3ccc4c(c3)c(c(-c3cccnc3[C@H](C)OC)n4CC)CC(C)(C)COC(=O)[C@@H]3CCCN(N3)C2=O)C(C)C)C1 (atropisomer, axis not shown) [Example A345]
pIC50 [1]: 5.00 to 6.00 | pIC50 [2]: < 5.00 | pEC50 [3]: > 5.30 | pIC50 [4]: 5.00 to 6.00 | pIC50 [5]: < 5.00 | pIC50 [6]: < 5.00 | pIC50 [7]: < 5.00

C=CC(=O)N1CC2(COCCN2C(=O)N(C)[C@H](C(=O)N[C@H]2Cc3nc(cs3)-c3ccc4c(c3)c(c(-c3cccnc3[C@H](C)OC)n4CC)CC(C)(C)COC(=O)[C@@H]3CCCN(N3)C2=O)C(C)C)C1 (atropisomer, axis not shown) [Example A352]
pIC50 [1]: 7.00 to 8.00 | pIC50 [2]: 5.00 to 6.00 | pEC50 [3]: > 5.30 | pIC50 [4]: 7.00 to 8.00 | pIC50 [5]: < 5.00 | pIC50 [6]: < 5.00 | pIC50 [7]: < 5.00

C=CC(=O)N1CC[C@@]2(C1)CN(C(=O)N(C)[C@H](C(=O)N[C@H]1Cc3nc(cs3)-c3ccc4c(c3)c(c(-c3cccnc3[C@H](C)OC)n4CC)CC(C)(C)COC(=O)[C@@H]3CCCN(N3)C1=O)C(C)C)CCO2 (atropisomer, axis not shown) [Example A353]
pIC50 [1]: 7.00 to 8.00 | pIC50 [2]: 6.00 to 7.00 | pEC50 [3]: > 5.30 | pIC50 [4]: 7.00 to 8.00 | pIC50 [5]: 6.00 to 7.00 | pIC50 [6]: 6.00 to 7.00 | pIC50 [7]: 6.00 to 7.00
